Measurements: US11040975B2, “Carbocyclic nucleoside reverse transcriptase inhibitors” (Merck Sharp & Dohme Corp., priority 2017, dated 2021)

Legend:
HIV-1 (H9IIIB virus) = experiment: Viking assay: antiviral potency in a multiple round HIV-1 infection assay (MT4-GFP cells); format: cell-based; details: Human immunodeficiency virus 1, MT4-GFP cells, 10% normal human serum; inhibition of reproductive ratio R0; read-out: Viking, IC50 (10% NHS)
Method: Assessing Antiviral Potency in a Multiple Round HIV-1 Infection Assay.
HIV-1 replication was monitored using MT4-gag-GFP clone D3 (hereafter designate MT4-GFP), which are MT-4 cells modified to harbor a GFP reporter gene, the expression of which is dependent on the HIV-1 expressed proteins tat and rev. Productive infection of an MT4-GFP cell with HIV-1 results in GFP expression approximately 24h post-infection.
MT4-GFP cells were maintained at 37° C./5% CO2/90% relative humidity in RPMI 1640 supplemented with 10% fetal bovine serum, 100 U/mL penicillin/streptomycin, and 400 μg/mL G418 to maintain the reporter gene. For infections, MT4-GFP cells were placed in the same medium lacking G418 and infected overnight with H9IIIB virus at an approximate multiplicity of infection of 0.01 in the same incubation conditions. Cells were then washed and re-suspended in either RPMI 1640 containing 10% or 50% normal human serum at 1.6×10^5 cells/mL. Compound plates were prepared by dispensing compounds dissolved in DMSO into wells of 384 well poly D lysine-coated plates ([…]) using an ECHO acoustic dispenser. Each compound was tested in a 10 point serial 3-fold dilution (typical final concentrations: 8.4 μM-0.43 nM). Controls included no inhibitor (DMSO only) and a combination of three antiviral agents (efavirenz, indinavir, and an integrase strand transfer inhibitor at final concentrations of 4 μM each). Cells were added (50 μL/well) to compound plates and the infected cells were maintained at 37° C./5% CO2/90% relative humidity.
Infected cells were quantified at two time points, ˜48h and ˜72h post-infection, by counting the number of green cells in each well using an Acumen eX3 scanner. The increase in the number of green cells over ˜24h period gives the reproductive ratio, R0, which is typically 5-15 and has been shown experimentally to be in logarithmic phase (data not shown). Inhibition of R0 is calculated for each well, and IC50s determined by non-linear 4-parameter curve fitting.

MT4-GFP cells = experiment: CTG assay: cytotoxicity in CellTiter-Glo Luminescent Cell Viability Assay; format: cell-based; details: CC50, MT4-GFP cells, 10% normal human serum, 48h incubation
Method: Assessing Cytotoxicity in CellTiter-Glo Luminescent Cell Viability Assay (CTG).
MT4-GFP cells were seeded in RPMI 1640 supplemented with 10% fetal bovine serum, 100 U/mL penicillin/streptomycin overnight at 37° C./5% CO2/90% relative humidity. Cells were then washed and resuspended in RPMI 1640 containing 10% normal human serum at a density of 0.8×10^5 cells/mL. Compound plates were prepared by dispensing compounds dissolved in DMSO into wells of 384 well solid black plates (Corning 3571) using an ECHO acoustic dispenser (0.2 μl/well). Each compound was tested in a 10 point serial 3-fold dilution (final concentrations: 8.4 μM-0.43 nM). Controls included DMSO. Cells were added (50 μL/well) to compound plates and were maintained at 37° C./5% CO2/90% relative humidity. CTG reagent (Promega, G7573) was added to the cell plates after 48h incubation according to the manufacturer's description. Luminescence signals were recorded on EnVision plate reader (PerkinElmer). CC50s were determined by non-linear 4-parameter curve fitting. The resulting data is shown in Table 3 with the marketed HIV nucleoside reverse transcriptase inhibitor AZT (azidothymidine, zidovudine) included as a control.

Row | SMILES | IC50 (HIV-1 (H9IIIB virus)) [µM] | CTG (MT4-GFP cells) [µM]
1 | C#C[C@]1(CO)C[C@@H](n2cnc3c(N)nc(F)nc32)C[C@@H]1O (racemic) [Example (+/−) 13, (1S,2S,4R)-4-(6-amino-2-fluoro-9H-purin-9-yl)-2-ethynyl-2-(hydroxymethyl)cyclopentan-1-ol and (1R,2R,4S)-4-(6-amino-2-fluoro-9H-purin-9-yl)-2-ethynyl-2-(hydroxymethyl)cyclopentan-1-ol] | 5.43 | > 42
2 | C#C[C@]1(CO)C[C@@H](n2cnc3c(Cl)nc(N)nc32)C[C@@H]1O (racemic) [Example (+/−) 14, (1S,2S,4R)-4-(2-amino-6-chloro-9H-purin-9-yl)-2-ethynyl-2-(hydroxymethyl)cyclopentan-1-ol and (1R,2R,4S)-4-(2-amino-6-chloro-9H-purin-9-yl)-2-ethynyl-2-(hydroxymethyl)cyclopentan-1-ol] | 5.64 | > 42
3 | C#C[C@]1(CO)C[C@@H](n2cnc3c(Cl)nc(Cl)nc32)C[C@@H]1O (racemic) [Example (+/−) 17, (1S,2S,4R)-4-(2,6-dichloro-9H-purin-9-yl)-2-ethynyl-2-(hydroxymethyl)cyclopentan-1-ol and (1R,2R,4S)-4-(2,6-dichloro-9H-purin-9-yl)-2-ethynyl-2-(hydroxymethyl)cyclopentan-1-ol] | 17.4 | 19.9
4 | C#C[C@]1(CO)C[C@@H](n2cnc3c(N)nc(Cl)nc32)C[C@@H]1O (racemic) [Example (+/−) 18, (1S,2S,4R)-4-(6-amino-2-chloro-9H-purin-9-yl)-2-ethynyl-2-(hydroxymethyl)cyclopentan-1-ol and (1R,2R,4S)-4-(6-amino-2-chloro-9H-purin-9-yl)-2-ethynyl-2-(hydroxymethyl)cyclopentan-1-ol] | 19 | > 42
5 | C#C[C@@]1(CO)C[C@H](n2cnc3c(N)nc(Cl)nc32)C[C@H]1O (single isomer, unassigned) [Example 18A, (1S,2S,4R)-4-(6-amino-2-chloro-9H-purin-9-yl)-2-ethynyl-2-(hydroxymethyl)cyclopentan-1-ol or (1R,2R,4S)-4-(6-amino-2-chloro-9H-purin-9-yl)-2-ethynyl-2-(hydroxymethyl)cyclopentan-1-ol] | 25.2 | > 42
6 | Cc1cn([C@H]2C[C@H](N=[N+]=[N-])[C@@H](CO)O2)c(=O)[nH]c1=O [AZT, 3′-azido-3′-deoxythymidine, reference compound] | 0.037 | >8.4
